Values of other authors, collected in patent EP0707853B1, “Muscle relaxant pharmaceutical compositions” (priority 1994, dated 1996).

Conditions: for pI: isoionic point; for pI / pKa: Handbook of Chemistry and Physics, ed. 69, page C 107; for isoionic point (pI): value given in the example text as the pH the solution is brought to; for pKa: pKa values for basic groups

SMILES | pI | isoionic point (pI) | pKa
NCC(=O)O [glycine] | 6,06 | 6.1 | 
O=C(O)[C@@H]1C[C@@H](O)CN1 [hydroxyproline] | 5,82 |  | 9,73
CSCC[C@H](N)C(=O)O [methionine] | 5,91 |  | 10,6
CC(C)[C@H](N)C(=O)O [valine] | 6,0 |  | 9,72
N[C@@H](CO)C(=O)O [serine] | 5,68 | 5.67 | 9,15
O=C(O)[C@@H]1CCCN1 [proline] | 6,3 |  | 9,87
C[C@H](N)C(=O)O [alanine] | 6,1 |  | 9,87
